Source: patent publication US20110281869A1, “TETRAHYDROISOQUINOLINES AS ANTIMALARIAL AGENTS” (priority 2008, published 2011)
Where two headings read alike, the source gives them in different places.

Tested on: P. falciparum K1
Assay: Plasmodium falciparum in vitro assay ([3H] hypoxanthine incorporation)
Assay type: cell-based
Settings: erythrocytic stages, strain K1 resistant to chloroquine and pyrimethamine, human red cells, read-out: IC50 (nM) on K1
Procedure: In vitro antimalarial activity: Plasmodium falciparum in vitro assay In vitro activity against erythrocytic stages of P. falciparum is determined using a [^3H] hypoxanthine incorporation assay. One strain resistant to chloroquine and pyrimethamine (P. falciparum K1) is used in the assays, and all test compounds are compared for activity with the standard drugs chloroquine (sigma C6628) and artemisinin (sigma-36, 159-3). Compounds are diluted in DMSO to 1 mM and added to parasite cultures incubated in RPMI 1640 medium without hypoxanthine, supplemented with HEPES (5.94 g/L), NaHCO3 (2.1 g/L), neomycin (100 U/mL), Albumax (5 g/L) and washed human red cells at 2.5% hematocrit (0.3% parasitaemia). Seven serial doubling dilutions of each drug are prepared in 96-well microtitre plates and incubated in a humidifying atmosphere at 37° C.; 4% CO2, 3% O2, 93% N2.
After 48 h, 50 μl of [^3H] hypoxanthine (0.5 μCi) is added to each well of a plate. The plates are incubated for a further 24 h under the same conditions. The plates are then harvested with a Betaplate cell harvester (Wallac) and washed with distilled water. The dried filters are inserted into a plastic foil with 10 mL of scintillation fluid, and counted in a Betaplate liquid scintillation counter. IC50 values are calculated from sigmoidal inhibition curves using Microsoft Excel.

| IC50 (Plasmodium falciparum) | SMILES | IC50 |
| --- | --- | --- |
| 4 nM | Cc1nc(C)c(C=CC(=O)N(Cc2ccc(-c3ccncc3)cc2)[C@@H](Cc2ccccc2)C(=O)N2CCc3ccccc3C2)s1 [Example 247, (S)—N-[1-Benzyl-2-(3,4-dihydro-1H-isoquinolin-2-yl)-2-oxo-ethyl]-3-(2,4-dimethyl-thiazol-5-yl)-N-(4-pyridin-4-yl-benzyl)-acrylamide] |  |
| 2 nM | Cc1c(C=CC(=O)N(Cc2ccc(-c3ccncc3)cc2)[C@@H](Cc2ccccc2)C(=O)N2CCc3ccccc3C2)cnn1C [Example 250, (S)—N-[1-Benzyl-2-(3,4-dihydro-1H-isoquinolin-2-yl)-2-oxo-ethyl]-3-(1,5-dimethyl-1H-pyrazol-4-yl)-N-(4-pyridin-4-yl-benzyl)-acrylamide] |  |
| 42 nM | Cc1nc(C)c(C=CC(=O)N(Cc2ccc(N3CCOCC3)cc2)[C@@H](Cc2ccccc2)C(=O)N2CCc3ccccc3C2)s1 [Example 251, (S)—N-[1-Benzyl-2-(3,4-dihydro-1H-isoquinolin-2-yl)-2-oxo-ethyl]-3-(2,4-dimethyl-thiazol-5-yl)-N-(4-morpholin-4-yl-benzyl)-acrylamide] |  |
| 70 nM | Cc1nc(C=CC(=O)N(Cc2ccc(-c3cncnc3)cc2)[C@@H](Cc2ccccc2)C(=O)N2CCc3ccccc3C2)c(C)o1 [Example 253, (S)—N-[1-Benzyl-2-(3,4-dihydro-1H-isoquinolin-2-yl)-2-oxo-ethyl]-3-(2,5-dimethyl-oxazol-4-yl)-N-(4-pyrimidin-5-yl-benzyl)-acrylamide] |  |
|  | O=C([C@H](Cc1ccccc1)N(Cc1ccc(-c2cc[n+]([O-])cc2)cc1)C(=O)C=Cc1ccc(C(F)(F)F)cc1)N1CCc2ccccc2C1 [Example 254, (S)—N-[1-Benzyl-2-(3,4-dihydro-1-H-isoquinolin-2-yl)-2-oxo-ethyl]-N-[4-(1-oxy-pyridin-4-yl)-benzyl]-3-(4-trifluoromethyl-phenyl)-acrylamide] | < 7.8 nM |
